Measured values from paper PMC5125864 (Molecular and biochemical parasitology, 2016).

Molecular target: T1, ehRad51 (Entamoeba histolytica, UniProt C4M4K4)
T1 sequence (C4M4K4 1-366): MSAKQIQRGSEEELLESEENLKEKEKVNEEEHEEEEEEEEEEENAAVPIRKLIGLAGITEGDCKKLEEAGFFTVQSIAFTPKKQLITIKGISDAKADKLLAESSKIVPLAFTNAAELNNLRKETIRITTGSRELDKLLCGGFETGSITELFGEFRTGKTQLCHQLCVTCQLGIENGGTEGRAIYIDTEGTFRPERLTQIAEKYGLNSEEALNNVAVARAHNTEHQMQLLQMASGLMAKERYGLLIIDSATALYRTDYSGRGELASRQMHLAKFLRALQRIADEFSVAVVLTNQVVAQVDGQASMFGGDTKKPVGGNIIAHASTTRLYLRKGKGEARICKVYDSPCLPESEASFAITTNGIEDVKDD
Test: oligonucleotide DNA strand exchange
Type: biochemical

`O=S(=O)(O)c1cc(N=C=S)ccc1C=Cc1ccc(N=C=S)cc1S(=O)(=O)O` [DIDS, 4,4′-diisothiocyanostilbene-2,2′-disulfonic acid] showed an IC50 of 18.5 µM.
